In US20250313535A1, “ALPHA 4 BETA 7 INTEGRIN MODULATORS AND USES THEREOF” (DICE MOLECULES SV, INC., priority 2022, published 2025) one finds IC50 data, which are given here for 32 compounds.

Where only a bound is given, the exact number is not on record here.

The target of one experiment is α4β1 integrin (Homo sapiens (Human), UniProt P05556+P13612). As to the kind of experiment: Integrin Adhesion Assay: Protocol 5 (VCAM-coated plate, RPMI-8866 cells with stable LOF mutation of the ITGB7 gene). As to conditions: RPMI-8866 cells with stable LOF mutation of the ITGB7 gene; read-out: Mean IC50 α4β1 KO^b. In kind it is cell-based. Summed up:
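RPMI-8866 B cells with CRISPR/Cas9 ITGB7 knockout (clonal, verified by flow cytometry) adhered to VCAM-coated wells for 1 h at 37° C in HEPES/NaCl buffer with 1 mM MnCl2, 0.1 mM CaCl2, 1% BSA, 1% DMSO. Bound cells quantified by CellTiter-Glo luminescence after washing; % inhibition versus DMSO and control, 4-parameter fit.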

A further experiment deals with α4β7 integrin (Homo sapiens (Human), UniProt P13612+P26010). The experiment in a line: Integrin Adhesion Assay: Protocol 4 (MAdCAM-coated plate, RPMI-8866 cells with stable LOF mutation of the ITGB1 gene). The format is cell-based. The note with it: RPMI-8866 cells with stable LOF mutation of the ITGB1 gene; read-out: Mean IC50 α4β7 KO^a. Summed up:
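RPMI-8866 cells with CRISPR/Cas9 knockout of ITGB1 (2×10^6/mL) were added to MAdCAM-coated wells with compound (1% DMSO) in HEPES/NaCl buffer with 1 mM MnCl2, 0.1 mM CaCl2 and 1% BSA, then incubated 1 h at 37 °C. After four washes, adherent cells were quantified by CellTiter-Glo luminescence. Percent inhibition versus DMSO and control compound was fitted to 4-parameter curves.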

α4β7 integrin, sequence (P13612 34-1032): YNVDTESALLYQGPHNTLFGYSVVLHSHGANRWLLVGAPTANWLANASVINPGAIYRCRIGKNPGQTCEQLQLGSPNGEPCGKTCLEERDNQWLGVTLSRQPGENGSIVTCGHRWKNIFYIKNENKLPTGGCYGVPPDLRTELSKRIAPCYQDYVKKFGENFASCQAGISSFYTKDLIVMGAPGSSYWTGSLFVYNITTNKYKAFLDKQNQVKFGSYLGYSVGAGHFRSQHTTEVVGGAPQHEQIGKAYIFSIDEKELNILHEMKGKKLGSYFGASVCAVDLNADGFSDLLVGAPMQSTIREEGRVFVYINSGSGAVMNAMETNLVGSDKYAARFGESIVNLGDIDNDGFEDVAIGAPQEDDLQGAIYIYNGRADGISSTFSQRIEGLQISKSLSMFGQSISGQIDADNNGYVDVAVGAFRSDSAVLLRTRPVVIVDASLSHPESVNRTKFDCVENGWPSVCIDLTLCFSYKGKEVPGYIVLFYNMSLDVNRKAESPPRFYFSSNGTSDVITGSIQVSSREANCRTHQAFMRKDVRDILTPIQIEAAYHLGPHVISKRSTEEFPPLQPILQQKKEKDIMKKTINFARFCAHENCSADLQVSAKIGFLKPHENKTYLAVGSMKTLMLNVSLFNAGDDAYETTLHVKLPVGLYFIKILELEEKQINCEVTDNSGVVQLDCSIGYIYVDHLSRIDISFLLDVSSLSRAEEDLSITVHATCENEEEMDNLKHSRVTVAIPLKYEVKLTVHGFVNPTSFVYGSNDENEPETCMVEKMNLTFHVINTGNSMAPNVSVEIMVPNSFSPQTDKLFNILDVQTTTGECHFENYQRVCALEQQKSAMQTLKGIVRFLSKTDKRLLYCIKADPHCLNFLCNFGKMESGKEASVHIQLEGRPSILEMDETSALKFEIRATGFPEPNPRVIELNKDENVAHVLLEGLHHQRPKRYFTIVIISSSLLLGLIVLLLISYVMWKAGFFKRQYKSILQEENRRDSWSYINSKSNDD
α4β7 integrin, sequence (P26010 20-798): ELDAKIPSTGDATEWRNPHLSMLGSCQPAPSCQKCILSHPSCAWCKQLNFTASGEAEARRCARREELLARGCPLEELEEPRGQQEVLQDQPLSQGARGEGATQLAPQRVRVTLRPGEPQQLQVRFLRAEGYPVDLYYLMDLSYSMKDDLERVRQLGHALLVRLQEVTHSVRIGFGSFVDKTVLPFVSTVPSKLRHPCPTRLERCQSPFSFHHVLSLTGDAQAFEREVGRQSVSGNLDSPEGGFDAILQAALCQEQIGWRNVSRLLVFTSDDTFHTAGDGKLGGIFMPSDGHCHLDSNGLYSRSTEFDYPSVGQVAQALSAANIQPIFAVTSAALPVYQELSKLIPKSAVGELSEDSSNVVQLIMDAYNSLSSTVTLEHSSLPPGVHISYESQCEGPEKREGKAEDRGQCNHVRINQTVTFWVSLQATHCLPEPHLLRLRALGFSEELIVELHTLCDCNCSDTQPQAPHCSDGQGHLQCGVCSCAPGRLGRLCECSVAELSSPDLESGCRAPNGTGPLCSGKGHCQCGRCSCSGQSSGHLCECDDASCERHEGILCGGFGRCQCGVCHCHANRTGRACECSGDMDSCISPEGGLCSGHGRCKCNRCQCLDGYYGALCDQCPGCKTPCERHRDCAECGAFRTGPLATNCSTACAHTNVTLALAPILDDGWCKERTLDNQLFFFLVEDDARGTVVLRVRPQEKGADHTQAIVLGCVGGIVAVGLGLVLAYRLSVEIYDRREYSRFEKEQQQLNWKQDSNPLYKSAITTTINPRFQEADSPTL
α4β1 integrin, sequence (P13612 34-1032): as the sequence (P13612 34-1032) above
α4β1 integrin, sequence (P05556 21-798): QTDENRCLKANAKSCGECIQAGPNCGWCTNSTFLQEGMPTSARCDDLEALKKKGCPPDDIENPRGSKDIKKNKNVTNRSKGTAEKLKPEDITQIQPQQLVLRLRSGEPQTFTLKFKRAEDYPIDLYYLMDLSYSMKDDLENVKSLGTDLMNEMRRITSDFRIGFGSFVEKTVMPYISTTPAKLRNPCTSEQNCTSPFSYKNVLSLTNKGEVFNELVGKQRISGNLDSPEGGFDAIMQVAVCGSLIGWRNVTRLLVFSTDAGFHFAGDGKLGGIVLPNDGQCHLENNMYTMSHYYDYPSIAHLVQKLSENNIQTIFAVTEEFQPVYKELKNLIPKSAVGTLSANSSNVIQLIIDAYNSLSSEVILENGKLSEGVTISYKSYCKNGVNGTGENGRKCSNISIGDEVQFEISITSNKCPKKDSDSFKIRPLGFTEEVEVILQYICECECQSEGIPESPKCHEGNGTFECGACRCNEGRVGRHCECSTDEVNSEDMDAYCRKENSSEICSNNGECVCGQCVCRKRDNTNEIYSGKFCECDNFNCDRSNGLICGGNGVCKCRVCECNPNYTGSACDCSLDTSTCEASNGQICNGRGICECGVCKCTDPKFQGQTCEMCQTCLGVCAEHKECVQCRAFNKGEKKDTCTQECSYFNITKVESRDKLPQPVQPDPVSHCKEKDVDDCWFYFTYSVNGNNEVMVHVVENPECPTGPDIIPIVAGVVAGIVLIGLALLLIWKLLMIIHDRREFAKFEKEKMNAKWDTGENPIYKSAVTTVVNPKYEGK

Turning to `O=C(O)[C@H](Cc1cccc2c(-c3nccc4c(CN5CC(F)C5)cccc34)cccc12)NC(=O)C1(C(F)(F)F)CCN(CC(F)(F)F)CC1` [Compound 556], the IC50 at α4β1 integrin was over 1000 nM; on α4β7 integrin, under 10 nM.

Take `COc1ccc(CN(C)C)c(C)c1-c1cccc2c(C[C@H](NC(=O)c3c(C)cccc3F)C(=O)O)cccc12` [Compound 558]: the values for the IC50 on α4β1 integrin and at α4β7 integrin were 100 to 1000 nM and under 10 nM, respectively.

Consider `O=C(O)[C@H](Cc1cccc2c(-c3nccc4c(CN5CCOCC5)cccc34)cccc12)NC(=O)C1(C(F)(F)F)CCN(CC(F)(F)F)CC1` [Compound 559], for which the IC50 at α4β1 integrin is over 1000 nM; at α4β7 integrin it was under 10 nM.

Take `O=C(O)[C@H](Cc1cccc2c(-c3nccc4c(CN5CCC(F)CC5)cccc34)cccc12)NC(=O)C1(C(F)(F)F)CCN(CC(F)(F)F)CC1` [Compound 560]: the figures for the IC50 on α4β1 integrin and on α4β7 integrin were over 1000 nM and under 10 nM, respectively.

`CC1(C)CCN(Cc2cccc3c(-c4cccc5c(C[C@H](NC(=O)C6(C(F)(F)F)CCN(CC(F)(F)F)CC6)C(=O)O)cccc45)nccc23)CC1` [Compound 561]: the IC50 on α4β1 integrin is over 1000 nM; at α4β7 integrin, under 10 nM.

As to `COc1ccc(CN2CCCCC2)c(C(F)(F)F)c1-c1cccc2c(C[C@H](NC(=O)c3c(C)cccc3F)C(=O)O)cccc12` [Compound 562], the IC50 at α4β1 integrin is 100 to 1000 nM; at α4β7 integrin, under 10 nM.

For `COc1ccc(CN(C)C)c(C(F)(F)F)c1-c1cccc2c(C[C@H](NC(=O)C3(C(F)(F)F)CCN(CC(F)(F)F)CC3)C(=O)O)cccc12` [Compound 563], the IC50 is 100 to 1000 nM on α4β1 integrin and under 10 nM on α4β7 integrin.

Turning to `COc1ccc(CN2CCCCC2)c(C(F)(F)F)c1-c1cccc2c(C[C@H](NC(=O)C3(C(F)(F)F)CCN(CC(F)(F)F)CC3)C(=O)O)cccc12` [Compound 564], the values for the concentration for half-maximal inhibition (IC50) on α4β1 integrin and at α4β7 integrin were 100 to 1000 nM and under 10 nM, respectively.

Take `COc1ccc(CN2CCCC(C)(C)C2)c(OC)c1-c1cccc2c(C[C@H](NC(=O)c3c(C)cccc3F)C(=O)O)cccc12` [Compound 565]: the IC50 on α4β1 integrin is 100 to 1000 nM; at α4β7 integrin it was under 10 nM.

For `COc1cccc(CN2CCCCC2)c1-c1cccc2c(C[C@H](NC(=O)C3(C(F)(F)F)CCN(CC(F)(F)F)CC3)C(=O)O)cccc12` [Compound 566], the 50% inhibitory concentration (IC50) was over 1000 nM on α4β1 integrin and under 10 nM at α4β7 integrin.

On to `COc1cccc(CCCN(C)C)c1-c1cccc2c(C[C@H](NC(=O)C3(C(F)(F)F)CCN(CC(F)(F)F)CC3)C(=O)O)cccc12` [Compound 567], for which the IC50 at α4β1 integrin was 100 to 1000 nM; on α4β7 integrin it was under 10 nM.

Take `COc1ccc(CN2CCC(C(F)(F)F)CC2)c(OC)c1-c1cccc2c(C[C@H](NC(=O)c3c(C)cccc3F)C(=O)O)cccc12` [Compound 569]: the values for the IC50 on α4β1 integrin and on α4β7 integrin were 100 to 1000 nM and under 10 nM, respectively.

Consider `COc1ccc(CN2CCC(c3ccccc3)CC2)c(OC)c1-c1cccc2c(C[C@H](NC(=O)c3c(C)cccc3F)C(=O)O)cccc12` [Compound 570], for which the figures for the IC50 at α4β1 integrin and at α4β7 integrin were 100 to 1000 nM and under 10 nM, respectively.

For `COc1ccc(CN2CCCCC2)c(OC)c1-c1cccc2c(C[C@H](NC(=O)c3c(F)cccc3C(C)C)C(=O)O)cccc12` [Compound 571], the IC50 at α4β1 integrin was over 1000 nM; at α4β7 integrin, under 10 nM.

`COc1ccc(CN2CCCC(F)C2)c(C(F)(F)F)c1-c1cccc2c(C[C@H](NC(=O)c3c(C)cccc3F)C(=O)O)cccc12` (stereo partly shown) [Compound 572]: the IC50 on α4β1 integrin is over 1000 nM; on α4β7 integrin, 10 to 100 nM.

For `COc1ccc(CN2CCC(F)(F)CC2)c(OC)c1-c1cccc2c(C[C@H](NC(=O)C3(C(F)(F)F)CCN([C@H]4COC[C@H]4F)CC3)C(=O)O)cccc12` [Compound 573], the results for the IC50 at α4β1 integrin and on α4β7 integrin were over 1000 nM and under 10 nM, respectively.

Take `COc1ccc(CN2CCC(F)CC2)c(C(F)(F)F)c1-c1cccc2c(C[C@H](NC(=O)c3c(C)cccc3F)C(=O)O)cccc12` [Compound 574]: the IC50 was over 1000 nM on α4β1 integrin and 10 to 100 nM at α4β7 integrin.

On to `COc1ccc(CN2CCCCC2)cc1-c1cccc2c(C[C@H](NC(=O)C3(C(F)(F)F)CCN(CC(F)(F)F)CC3)C(=O)O)cccc12` [Compound 575], for which the IC50 at α4β1 integrin was 100 to 1000 nM; on α4β7 integrin, under 10 nM.

`CC1(C(=O)N[C@@H](Cc2cccc3c(-c4ncc(CN5CCCCC5)c5ccccc45)cccc23)C(=O)O)CCN(CC(F)(F)F)CC1` [Compound 576]: the values for the IC50 at α4β1 integrin and at α4β7 integrin were over 1000 nM and under 10 nM, respectively.

For `O=C(O)[C@H](Cc1cccc2c(-c3ncc(CN4CCCCC4)c4ccccc34)cccc12)NC(=O)C1(C(F)(F)F)CCN(C2COC2)CC1` [Compound 577], the IC50 at α4β1 integrin is 100 to 1000 nM; at α4β7 integrin, under 10 nM.

As to `O=C(O)[C@H](Cc1cccc2c(-c3ncc(CN4CCCCC4)c4ccccc34)cccc12)NC(=O)C1(C(F)(F)F)CCN([C@@H]2COCC2(F)F)CC1` [Compound 578], the IC50 at α4β1 integrin is over 1000 nM; on α4β7 integrin, under 10 nM.

On to `COc1ccc(CN2CCC(C(C)(C)C)CC2)c(OC)c1-c1cccc2c(C[C@H](NC(=O)c3c(C)cccc3F)C(=O)O)cccc12` [Compound 579], for which the half-inhibitory concentration (IC50) is 100 to 1000 nM on α4β1 integrin and under 10 nM on α4β7 integrin.

Take `O=C(O)[C@H](Cc1cccc2c(-c3ncc(CN4CCC(C(F)(F)F)CC4)c4ccccc34)cccc12)NC(=O)C1(C(F)(F)F)CCN(C2COC2)CC1` [Compound 580]: the results for the IC50 at α4β1 integrin and at α4β7 integrin were over 1000 nM and under 10 nM, respectively.

Take `CN(C)Cc1ccc2c(-c3cccc4c(C[C@H](NC(=O)C5(C(F)(F)F)CCN(CC(F)(F)F)CC5)C(=O)O)cccc34)nccc2c1` [Compound 584]: the IC50 on α4β1 integrin was over 1000 nM; at α4β7 integrin, 10 to 100 nM.

Regarding `CN(C)Cc1cc(-c2cccc3c(C[C@H](NC(=O)c4c(F)cc(N5CCOC[C@@H]5C(F)(F)F)cc4CN4CCCC4)C(=O)O)cccc23)c2cnccc2c1` [Compound 587], the IC50 was over 1000 nM at α4β1 integrin and under 10 nM on α4β7 integrin.

On to `COc1ccc(CN(C)C)c(OC)c1-c1cccc2c(C[C@H](NC(=O)c3c(C)cccc3CN3CCC(F)(F)CC3)C(=O)O)cccc12` [Compound 588], for which the IC50 on α4β1 integrin is over 1000 nM; on α4β7 integrin, 100 to 1000 nM.

Take `COc1ccc(CN(C)C)c(OC)c1-c1cccc2c(C[C@H](NC(=O)c3c(F)ccc(F)c3C)C(=O)O)cccc12` [Compound 589]: the IC50 on α4β1 integrin is over 1000 nM; on α4β7 integrin it was under 10 nM.

As for `COc1ccc(CN2CC(F)C2)c(OC)c1-c1cccc2c(C[C@H](NC(=O)c3c(C)cccc3F)C(=O)O)cccc12` [Compound 590], the IC50 at α4β1 integrin is over 1000 nM; at α4β7 integrin, under 10 nM.

Consider `CN(C)Cc1cccc2c(-c3cccc4c(C[C@H](NC(=O)C5(C(F)(F)F)CCN(C6COC6)CC5)C(=O)O)cccc34)nccc12` [Compound 591], for which the figures for the concentration for half-maximal inhibition (IC50) on α4β1 integrin and at α4β7 integrin were over 1000 nM and under 10 nM, respectively.

As for `CN(C)Cc1cccc2c(-c3cccc4c(C[C@H](NC(=O)C5(C(F)(F)F)CCN([C@@H]6CCOC6)CC5)C(=O)O)cccc34)nccc12` [Compound 592], the results for the IC50 on α4β1 integrin and on α4β7 integrin were over 1000 nM and under 10 nM, respectively.

In the case of `CN(C)Cc1cccc2c(-c3cccc4c(C[C@H](NC(=O)C5(C(F)(F)F)CCN([C@H]6CCOC6)CC5)C(=O)O)cccc34)nccc12` [Compound 593], the IC50 at α4β1 integrin was 100 to 1000 nM; at α4β7 integrin, under 10 nM.

Regarding `O=C(O)[C@H](Cc1cccc2c(-c3nccc4c(CN5CCC(F)(F)C5)cccc34)cccc12)NC(=O)C1(C(F)(F)F)CCN(CC(F)(F)F)CC1` [Compound 594], the results for the IC50 on α4β1 integrin and at α4β7 integrin were over 1000 nM and 10 to 100 nM, respectively.
